As usually defined, the % inhibition is the relative decrease from the control value, in per cent. A lower % inhibition goes with little suppression.

Where a SMILES comes first, the peptide text is derived from it.

The results in this text go back to US20100190724A1, “USE OF MELANOCYTE-STIMULATING HORMONE RELEASE-INHIBITING FACTOR AS A THERAPEUTIC AGENT IN THE TREATMENT OF PSEUDOMONAS AERUGINOSA INFECTION” (priority 2007, published 2010).

The assay concerns drug-resistant Mycobacterium tuberculosis. The following applies: peptide 10 micrograms per ml, seven days.

For the compound `CC(C)C[C@H](NC(=O)[C@@H]1CCCN1)C(=O)NCC(N)=O` [MSHRIF, Pro-Leu-Gly-NH2] (H-Pro-Leu-Gly-NH2), the “% inhibition” value is 0.0%.
